Drawing on publication PMC4447972, “Mechanism of the Association between Na^+ Binding and Conformations at the Intracellular Gate in Neurotransmitter:Sodium Symporters” (The Journal of Biological Chemistry, 2015), this text covers Km for two molecules.

The target in one data set is T1, DAT (hDAT) (Homo sapiens, UniProt Q01959).
T1 construct: gene SLC6A3
Conditions: read-out: DA Km; 130 mM NaCl, pH 7.4; 6 nM [3H]DA plus unlabelled DA; apparent affinity for uptake.

Substrate in data set [1]: NCCc1ccc(O)c(O)c1
Kind of data set: cells, lysate or membranes. Conditions: 130 mM NaCl, pH 7.4, 6 nM [3H]DA plus unlabelled DA, apparent affinity for uptake.

T1 sequence (Q01959 whole entry): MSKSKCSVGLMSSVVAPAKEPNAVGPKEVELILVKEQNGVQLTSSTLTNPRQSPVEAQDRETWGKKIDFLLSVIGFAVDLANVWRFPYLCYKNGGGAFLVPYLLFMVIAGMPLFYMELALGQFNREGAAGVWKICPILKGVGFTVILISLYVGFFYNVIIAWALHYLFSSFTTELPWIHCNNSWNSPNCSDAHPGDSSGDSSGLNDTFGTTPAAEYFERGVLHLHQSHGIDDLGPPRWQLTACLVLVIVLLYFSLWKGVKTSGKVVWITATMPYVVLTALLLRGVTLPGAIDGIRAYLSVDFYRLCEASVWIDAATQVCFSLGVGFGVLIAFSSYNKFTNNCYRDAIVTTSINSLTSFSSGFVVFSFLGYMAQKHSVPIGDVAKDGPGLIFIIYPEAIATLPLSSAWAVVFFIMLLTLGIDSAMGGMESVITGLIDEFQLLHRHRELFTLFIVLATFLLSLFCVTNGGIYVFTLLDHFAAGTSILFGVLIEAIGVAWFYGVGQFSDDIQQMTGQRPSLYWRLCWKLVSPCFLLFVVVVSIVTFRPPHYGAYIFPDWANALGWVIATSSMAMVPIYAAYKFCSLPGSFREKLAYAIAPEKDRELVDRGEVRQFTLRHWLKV

Turning to `NCCc1ccc(O)c(O)c1` [dopamine], at DAT (hDAT), the Km worked out at 1.2 µM.

B1: DAT (hDAT) (Homo sapiens; D436A) (protein)
chain: MSKSKCSVGLMSSVVAPAKEPNAVGPKEVELILVKEQNGVQLTSSTLTNPRQSPVEAQDRETWGKKIDFLLSVIGFAVDLANVWRFPYLCYKNGGGAFLVPYLLFMVIAGMPLFYMELALGQFNREGAAGVWKICPILKGVGFTVILISLYVGFFYNVIIAWALHYLFSSFTTELPWIHCNNSWNSPNCSDAHPGDSSGDSSGLNDTFGTTPAAEYFERGVLHLHQSHGIDDLGPPRWQLTACLVLVIVLLYFSLWKGVKTSGKVVWITATMPYVVLTALLLRGVTLPGAIDGIRAYLSVDFYRLCEASVWIDAATQVCFSLGVGFGVLIAFSSYNKFTNNCYRDAIVTTSINSLTSFSSGFVVFSFLGYMAQKHSVPIGDVAKDGPGLIFIIYPEAIATLPLSSAWAVVFFIMLLTLGIDSAMGGMESVITGLIAEFQLLHRHRELFTLFIVLATFLLSLFCVTNGGIYVFTLLDHFAAGTSILFGVLIEAIGVAWFYGVGQFSDDIQQMTGQRPSLYWRLCWKLVSPCFLLFVVVVSIVTFRPPHYGAYIFPDWANALGWVIATSSMAMVPIYAAYKFCSLPGSFREKLAYAIAPEKDRELVDRGEVRQFTLRHWLKV
Consider B1, for which, in data set [1], the Km was 0.15 [0.13;0.18] μM.
